Four compounds from PMC5908784, “Extracellular loops 2 and 3 of the calcitonin receptor selectively modify agonist binding and efficacy” (Biochemical Pharmacology, 2018) can be followed below.

Where a chain is given by its changes, count along the chain named. Where a SMILES comes first, the peptide text is derived from it. Bridges are numbered along the chain shown (N, C = ends).

Common to all, as to assay: cAMP accumulation
What all share (format): cell-based
In general terms: cAMP levels reflect the balance of adenylyl cyclase and phosphodiesterase activity.

Experiment [1] addresses T1, hCTR D373A (Homo sapiens, UniProt P30988, D373A).
T1 construct: c-Myc (N); expressed in transfected cells
T1 sequence (P30988 25-474 D373A): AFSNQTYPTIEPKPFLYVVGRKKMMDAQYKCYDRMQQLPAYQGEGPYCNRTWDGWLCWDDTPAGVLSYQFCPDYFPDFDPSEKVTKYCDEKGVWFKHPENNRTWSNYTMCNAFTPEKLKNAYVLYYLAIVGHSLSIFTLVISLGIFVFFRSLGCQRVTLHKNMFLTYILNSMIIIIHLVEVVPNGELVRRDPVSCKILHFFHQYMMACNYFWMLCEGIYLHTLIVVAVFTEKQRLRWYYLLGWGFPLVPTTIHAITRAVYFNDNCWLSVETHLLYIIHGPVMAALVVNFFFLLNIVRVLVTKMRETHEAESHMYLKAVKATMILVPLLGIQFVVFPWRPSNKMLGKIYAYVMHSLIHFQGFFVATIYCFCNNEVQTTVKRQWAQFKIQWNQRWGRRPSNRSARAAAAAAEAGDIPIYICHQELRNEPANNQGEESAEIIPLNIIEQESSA
The settings on record: mean ± S.E.M.; for Emax: cAMP maximal response, SEM; for EC50: cAMP, CV1-FlpIn cells, 30 min, IBMX. On the procedure:
(§1) Cells (2.5 × 10^4 cells/well) were seeded into 96-well plates and incubated overnight. Cells were stimulated with increasing concentrations of ligands for 30 min in the presence of IBMX. The liquid was discarded, changed to absolute ethanol and volatilized to dryness at room temperature. […] Data were normalized to the response of 100 μM forskolin.
(§2) Data were corrected for radioligand occupancy using the Cheng-Prusoff equation in Prism; as such data are reported as pKi. Emax and EC50 were estimated from concentration-response curves using with a 3-parameter logistic equation in Prism (v7). These values are a composite of functional affinity, efficacy and stimulus response coupling. […] Significance was accepted at P < 0.05.

The target in experiment [2] is T2, hCTR E294A (Homo sapiens, UniProt P30988, E294A).
T2 construct: c-Myc (N); expressed in transfected cells
T2 sequence (P30988 25-474 E294A): T1 sequence (P30988 25-474 D373A) with E270A, A349D
Particulars: mean ± S.E.M.; for Emax: cAMP maximal response, SEM; for EC50: cAMP, CV1-FlpIn cells, 30 min, IBMX. On the procedure:
as §1, §2

Experiment [3] concerns the target T3, hCTR F285A (Homo sapiens, UniProt P30988, F285A).
T3 construct: expressed in transfected cells
T3 sequence (P30988 25-474 F285A): T1 sequence (P30988 25-474 D373A) with F261A, A349D
The settings on record: mean ± S.E.M.; for Emax: cAMP maximal response, SEM; for EC50: cAMP, CV1-FlpIn cells, 30 min, IBMX. On the procedure: as §1, §2

Experiment [4] concerns the target T4, hCTR L291A (Homo sapiens, UniProt P30988, L291A).
T4 construct: expressed in transfected cells
T4 sequence (P30988 25-474 L291A): T1 sequence (P30988 25-474 D373A) with L267A, A349D
The settings on record: mean ± S.E.M.; for Emax: cAMP maximal response, SEM. On the procedure:
as §1, §2

In experiment [5] the target is T5, hCTR V293A (Homo sapiens, UniProt P30988, V293A).
T5 construct: c-Myc (N); expressed in transfected cells
T5 sequence (P30988 25-474 V293A): T1 sequence (P30988 25-474 D373A) with V269A, A349D
Particulars: mean ± S.E.M.; for Emax: cAMP maximal response, SEM; for EC50: cAMP, CV1-FlpIn cells, 30 min, IBMX. On the procedure: as §1, §2

For `CC(C)C[C@H](NC(=O)[C@H](CCCCN)NC(=O)CNC(=O)[C@H](CC(C)C)NC(=O)[C@@H](NC(=O)[C@@H]1CSSC[C@H](N)C(=O)N[C@@H](CO)C(=O)N[C@@H](CC(N)=O)C(=O)N[C@@H](CC(C)C)C(=O)N[C@@H](CO)C(=O)N[C@@H]([C@@H](C)O)C(=O)N1)C(C)C)C(=O)N[C@@H](CO)C(=O)N[C@@H](CCC(N)=O)C(=O)N[C@@H](CCC(=O)O)C(=O)N[C@@H](CC(C)C)C(=O)N[C@@H](Cc1c[nH]cn1)C(=O)N[C@@H](CCCCN)C(=O)N[C@@H](CC(C)C)C(=O)N[C@@H](CCC(N)=O)C(=O)N[C@H](C(=O)N[C@@H](Cc1ccc(O)cc1)C(=O)N1CCC[C@H]1C(=O)N[C@@H](CCCNC(=N)N)C(=O)N[C@H](C(=O)N[C@@H](CC(N)=O)C(=O)N[C@H](C(=O)NCC(=O)N[C@@H](CO)C(=O)NCC(=O)N[C@H](C(=O)N1CCC[C@H]1C(N)=O)[C@@H](C)O)[C@@H](C)O)[C@@H](C)O)[C@@H](C)O` [sCT], the Emax – broadly, the size of the effect at its maximum, as opposed to the concentration needed – amounted to 116 ± 8% in experiment [1]; 98 ± 9% in experiment [2]; 105 ± 8% in experiment [3]; 108 ± 4% in experiment [4]; 112 ± 11% in experiment [5].

For `CSCC[C@H](NC(=O)CNC(=O)[C@H](CO)NC(=O)[C@H](Cc1ccccc1)NC(=O)[C@H](CCCNC(=N)N)NC(=O)[C@H](Cc1c[nH]cn1)NC(=O)[C@H](Cc1ccccc1)NC(=O)[C@H](CC(N)=O)NC(=O)[C@H](CC(N)=O)NC(=O)[C@H](CC(C)C)NC(=O)[C@H](CC(N)=O)NC(=O)[C@H](CCCNC(=N)N)NC(=O)[C@H](Cc1c[nH]c2ccccc12)NC(=O)[C@H](Cc1ccc(O)cc1)NC(=O)[C@H](C)NC(=O)[C@H](CO)NC(=O)[C@H](CC(C)C)NC(=O)[C@@H](NC(=O)[C@@H]1CSSC[C@H](N)C(=O)N[C@@H](CO)C(=O)N[C@@H](CC(N)=O)C(=O)N[C@@H](CC(C)C)C(=O)N[C@@H](CO)C(=O)N[C@@H]([C@@H](C)O)C(=O)N1)C(C)C)C(=O)NCC(=O)N[C@@H](Cc1ccccc1)C(=O)NCC(=O)N1CCC[C@H]1C(=O)N[C@@H](CCC(=O)O)C(=O)N[C@H](C(=O)N1CCC[C@H]1C(N)=O)[C@@H](C)O` [pCT] (H-CSNLSTCVLSAYWRNLNNFHRFSGMGFGPETP-NH2; disulfide 1-7), the Emax in experiment [1] was 158 ± 9%; in experiment [2] it was 105 ± 6%; in experiment [3], 81 ± 10%; in experiment [4] it was 105 ± 5%; in experiment [5], 107 ± 5%. Further, the EC50 – broadly, the concentration giving half of the maximal effect – is 0.389 nM in experiment [1]; 0.0398 nM in experiment [2]; 0.0501 nM in experiment [3]; 0.316 nM in experiment [4] (cAMP, CV1-FlpIn cells, 30 min, IBMX); 0.0501 nM in experiment [5].

Regarding `CC(C)C[C@H](NC(=O)[C@H](CC(N)=O)NC(=O)[C@H](CC(N)=O)NC(=O)[C@H](CO)NC(=O)[C@H](CO)NC(=O)[C@H](CCCNC(=N)N)NC(=O)[C@@H](NC(=O)[C@H](CC(C)C)NC(=O)[C@H](Cc1ccccc1)NC(=O)[C@H](CC(N)=O)NC(=O)[C@H](C)NC(=O)[C@H](CC(C)C)NC(=O)[C@H](CCCNC(=N)N)NC(=O)[C@H](CCC(N)=O)NC(=O)[C@@H](NC(=O)[C@H](C)NC(=O)[C@@H]1CSSC[C@H](NC(=O)[C@@H](N)CCCCN)C(=O)N[C@@H](CC(N)=O)C(=O)N[C@@H]([C@@H](C)O)C(=O)N[C@@H](C)C(=O)N[C@@H]([C@@H](C)O)C(=O)N1)[C@@H](C)O)C(C)C)C(=O)NCC(=O)N1CCC[C@H]1C(=O)N[C@H](C(=O)N[C@@H](CC(C)C)C(=O)N1CCC[C@H]1C(=O)N1CCC[C@H]1C(=O)N[C@H](C(=O)N[C@@H](CC(N)=O)C(=O)N[C@H](C(=O)NCC(=O)N[C@@H](CO)C(=O)N[C@@H](CC(N)=O)C(=O)N[C@H](C(=O)N[C@@H](Cc1ccc(O)cc1)C(N)=O)[C@@H](C)O)C(C)C)[C@@H](C)O)C(C)C` [rAmy], the Emax was determined as 64 ± 16% in experiment [1]; 90 ± 9% in experiment [2]; 92 ± 9% in experiment [3]; 101 ± 13% in experiment [4]; 91 ± 10% in experiment [5].

On to `CC(C)C[C@H](NC(=O)CNC(=O)[C@H](C)NC(=O)[C@H](CC(C)C)NC(=O)[C@H](CCCNC(=N)N)NC(=O)[C@H](Cc1cnc[nH]1)NC(=O)[C@@H](NC(=O)[C@@H](NC(=O)[C@@H]1CSSC[C@H](NC(=O)[C@H](C)N)C(=O)N[C@@H](CC(=O)O)C(=O)N[C@@H]([C@@H](C)O)C(=O)N[C@@H](C)C(=O)N[C@@H]([C@@H](C)O)C(=O)N1)C(C)C)[C@@H](C)O)C(=O)N[C@@H](CC(C)C)C(=O)N[C@@H](CO)C(=O)N[C@@H](CCCNC(=N)N)C(=O)N[C@@H](CO)C(=O)NCC(=O)NCC(=O)N[C@H](C(=O)N[C@H](C(=O)N[C@@H](CCCCN)C(=O)N[C@@H](CC(N)=O)C(=O)N[C@@H](CC(N)=O)C(=O)N[C@@H](Cc1ccccc1)C(=O)N[C@H](C(=O)N1CCC[C@H]1C(=O)N[C@H](C(=O)N[C@@H](CC(N)=O)C(=O)N[C@H](C(=O)NCC(=O)N[C@@H](CO)C(=O)N[C@@H](CCCCN)C(=O)N[C@@H](C)C(=O)N[C@@H](Cc1ccccc1)C(N)=O)C(C)C)[C@@H](C)O)C(C)C)C(C)C)C(C)C` [hαCGRP], for which the Emax in experiment [1] worked out at 34 ± 5%; in experiment [2] it was 137 ± 31%; in experiment [3], 122 ± 18%; in experiment [4], 101 ± 36%; in experiment [5] it was 153 ± 17%. The half-maximal effective concentration (EC50) is 11.2 nM in experiment [1], 49 nM in experiment [2], 15.8 nM in experiment [3] and 8.71 nM in experiment [5].
